Data from US20110251144A1, “MOLECULAR MODULATORS OF THE WNT/BETA-CATENIN PATHWAY” (MASSACHUSETTS INSTITUTE OF TECHNOLOGY, priority 2008, published 2011).
Entries after “also recorded” stand apart in the source; their conditions may differ. Like-named read-outs stand apart in the source and are kept apart here.

Assays:
nuclear β-catenin = assay: Immunofluorescent staining of β-catenin in B16 cells; type: cell-based, murine; details: 10 mM lithium chloride or BIO, versus sodium chloride or DMSO
Description: A polyclonal rabbit anti-β-catenin antibody was used for detection of β-catenin (1:1000 dilution for immunoblot, 1:200 dilution for immunohistochemistry). Cells were grown on 18 mm glass coverslips, for 48-72 hours, fixed using 4% paraformaldahyde, permeabilized using 0.25% Triton X-100, and then blocked with 10% goat serum. Goat anti-rabbit Alexa Fluor-568 antibody (Molecular Probes; Eugene, Oreg.) was diluted 1:1000. Cells were counterstained for nucleic acid with DAPI (Molecular Probes; Eugene, Oreg.). Paraffin-embedded nevus sections were stained using an antibody dilution of 1:200. Cellular lysates were obtained by lysing cells on plate with a 0.1% NP-40 based buffer and analyzed by NuPage 4-12% gradient gels (Invitrogen; Grand Island, N.Y.). The WNT5A antibody was obtained from Cell Signaling Technologies (Danvers, Mass.).

B16 cells [1] = assay: Proliferation of B16 cells by MTT assay; type: cell-based, murine
[2] = Suitability for murine therapeutic trials (toxicity, serum levels); type: in vivo; details: mice
[3] = tested on: Axin2, Si/Gp100, Kit and other melanocytic genes; assay: Quantitative PCR of endogenous gene targets in B16 melanoma cells; type: cell-based, murine
Description: Cells were cultured for approximately 72 hours until they reached 80-90% confluency. RNA was purified using the RNeasy kit using the manufacturer's protocol (Qiagen; Maryland, MD). cDNA was synthesized using Superscript Reverse Transcriptase (Invitrogen; Grand Island, N.Y.). […] Quantitative PCR results presented in the manuscript are representative of experiments performed on a minimum of three biologic replicates.

[4] = tested on: Wnt/β-catenin signaling (beta-catenin activated reporter, BAR); assay: High throughput small molecule screen, Wnt/β-catenin reporter in RKO cells; type: cell-based, human
[5] = tested on: Wnt/β-catenin signaling (beta-catenin activated reporter, BAR); assay: High throughput small molecule screen, beta-catenin activated reporter (BAR) in HT22 cells; type: cell-based, mouse
Description: Compounds were dissolved in dimethylsulphoxide (DMSO). For the primary screen, performed in duplicate, HT22 cells stably expressing the beta-catenin activated reporter (BAR) were cultured in growth medium (DMEM/10% FBS/1% antibiotic). 3000 cells per well were transferred to 384-well clear bottom plates (Nalgene Nunc; Rochester, N.Y.) in 30 μL of growth medium. The following day, […] of compound and 10 μL of either growth media or WNT3A conditioned media (E.C.50 dose) was transferred to the cells. The next day each well was imaged using transmitted light with the ImageXpress Micro (Molecular devices; Sunnyvale, Calif.) followed by the addition of 10 μL of Steady-Glo (Promega; Madison, Wis.) as per the manufacture's instructions, and luminescence measurement on an EnVision Multilabel plate reader (PerkinElmer; Waltham, Mass.). Viability was scored by analyzing the ImageXpress images. As described in detail in Seiler et al. (Seiler et al., Nucleic Acids Res. 36:D351 (2008), which is hereby incorporated by reference in its entirety), each compound well received an algebraically signed Z-score corresponding to the number of standard deviations it fell above or below the mean of a well-defined mock-treatment distribution of DMSO controls. Z-score normalized data from the growth media stimulus group were sorted by average percent change. The fold-increase over the background of DMSO controls for each treatment was also calculated. Top compounds with the greatest percent change of activity with the growth media were then resorted based on the percent change with the WNT3A stimulus.
These compounds represent FDA approved compounds and drugs or known bioactive molecules. RKO (human colorectal carcinoma red line) and HT22 (mouse hyppocampal line) cell lines were screened. The lines were tested without a stimulus, in presence of an E.C.50 dose of Wnt 3A condition media and in presence of a subthreshold dose of LiCl.

B16 melanoma cells = assay: B16 footpad tumor inoculation, tumor size and metastasis in C57BL/6 mice; type: in vivo
Description: Footpad injections of transduced B16 melanoma cells and measurement of popliteal lymph node and lung metastasis was performed as previously described (Murakami et al., Cancer Res. 62:7328 (2002), which is hereby incorporated by reference in its entirety). […] Fumagalli et al., Exp. Neurol. 198:114 (2006), which are hereby incorporated by reference in their entirety). […] All animal studies were performed using IACUC protocols approved by institutional review boards.

[6] = tested on: human melanoma xenografts; details: mouse model, Namkoong et al. 2007; cited from earlier work
B16 cells [7] = assay: Pigmentation of cultured B16 cells; type: cell-based, murine; details: B16 cells treated for 2 passages, 10 μM
Axin2 promoter = assay: Secondary screen, firefly luciferase under the Axin2 promoter in HEK293T cells; type: cell-based; details: alone and with WNT3A conditioned media
[8] = 10 mM lithium chloride or 1 μM BIO
[9] = RKO cells, in presence of a subthreshold dose of LiCl
[10] = RKO cells, in presence of an E.C.50 dose of Wnt 3A condition media
[11] = HT22 cells, in presence of a subthreshold dose of LiCl
[12] = HT22 cells, in presence of an E.C.50 dose of Wnt 3A condition media

Row | Compound | RKO Li [4] | RKO Wnt3a [4] | HT22 Li [5] | HT22 Wnt3a [5] | RKO Li [4, 9] | RKO Wnt3a [4, 10] | HT22 Li [5, 11] | HT22 Wnt3a [5, 12] | further results
1 | O=C1Nc2cc(Br)ccc2/C1=C1/Nc2ccccc2/C1=N\O [BIO, 6-bromoindirubin-3′-oxime] | – | – | – | – | – | – | – | – | Nuclear β-catenin by immunofluorescent staining (nuclear β-catenin): increased nuclear β-catenin; Proliferation by MTT assay (B16 cells [1]; [8]): decreased proliferation; Obstacles to murine therapeutic trials [2]: several obstacles relating to both toxicity; Axin2 levels by quantitative PCR [3, 8]: increased Axin2 levels
2 | Cc1[nH]c(=O)c(C#N)cc1-c1ccncc1 [milrinone] | 1.00 | 1.20 | 0.98 | 1.75 | – | – | – | – | –
3 | Nc1nc2ccc(OC(F)(F)F)cc2s1 [riluzole] | – | – | – | – | – | – | – | – | Sentinel popliteal lymph node metastasis (Firefly luciferase) (B16 melanoma cells; 9 mice per group, versus control mice with no treatment): significantly decreased metastasis; Tumor size (B16 melanoma cells; after 21 days, treatment initiated one week post-injection, oral in drinking water): No significant difference; Lung metastasis, mice affected (B16 melanoma cells; versus 3 out of 9 control mice): 0 out of 9; Proliferation / growth of human melanoma xenografts [6]: could decrease proliferation of human melanoma xenografts; Proliferation by MTT assay (B16 cells [1]; three days, 10 μM riluzole): decreased proliferation; Pigmentation (B16 cells [7]): increased pigmentation; Expression of melanocytic genes ([3]; 72 hours, 10 mM lithium chloride or 10 μM riluzole): elevation in levels of melastatin (Trpm1) and Kit transcripts; also recorded: upregulation of melanocytic genes; Activation of firefly luciferase under the Axin2 promoter (Axin2 promoter): both on its own as well as in synergy with WNT3A conditioned media
4 | Cl.Cl.FC(F)(F)c1ccc2c(c1)N(CCCN1CCN(CCCl)CC1)c1ccccc1S2 [Fluphenazine-N-2-chloroethane, Dihydrochloride] | 4.27 | 0.08 | 1.32 | 0.13 | – | – | – | – | –
5 | azathioprine | – | – | – | – | 1.06 | 1.30 | 0.76 | 2.67 | –
6 | CCCCCCCCCCCCCCCCCC(=O)O[C@H](CC(=O)[O-])C[N+](C)(C)C [stearoylcarnitine] | – | – | – | – | 0.92 | 0.10 | 3.21 | 0.38 | –
